Laboratory results published in ChEMBL document CHEMBL1201862, “PubChem BioAssay data set” (2004).
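Five concentrations, 48 hours, 96-well plates. GI50 marks 50% less growth.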 The source made the active and inactive calls. No stated cut-off is given here; in the data, active = GI50 up to about 1.1 µM and inactive = higher.

Key:
Assay in all cases: inhibition of tumour cell growth, NCI panel, 48 h
786-0 = system: 786-0
A498 = system: A498
A549 = system: A549
ACHN = system: ACHN
BT-549 = system: BT-549
CAKI-1 = system: CAKI-1
CCRF-CEM = system: CCRF-CEM
DU-145 = system: DU-145
EKVX = system: EKVX
HCC 2998 = system: HCC 2998
HCT-116 = system: HCT-116
HCT-15 = system: HCT-15
HL-60 = system: HL-60
HOP-62 = system: HOP-62
HOP-92 = system: HOP-92
HT-29 = system: HT-29
Hs-578T = system: Hs-578T
IGROV-1 = system: IGROV-1
K562 = system: K562
KM12 = system: KM12
LOX IMVI = system: LOX IMVI
M14 = system: M14
MCF7 = system: MCF7
MDA-MB-231 = system: MDA-MB-231
MDA-MB-435 = system: MDA-MB-435
MDA-N = system: MDA-N
MOLT-4 = system: MOLT-4
Malme-3M = system: Malme-3M
NCI-H226 = system: NCI-H226
NCI-H23 = system: NCI-H23
NCI-H460 = system: NCI-H460
NCI/ADR-RES = system: NCI/ADR-RES
OVCAR-3 = system: OVCAR-3
OVCAR-4 = system: OVCAR-4
OVCAR-5 = system: OVCAR-5
OVCAR-8 = system: OVCAR-8
PC-3 = system: PC-3
RPMI-8226 = system: RPMI-8226
SF-295 = system: SF-295
SK-MEL-28 = system: SK-MEL-28
SK-MEL-2 = system: SK-MEL-2
SK-MEL-5 = system: SK-MEL-5
SK-OV-3 = system: SK-OV-3
SN12C = system: SN12C
SNB-19 = system: SNB-19
SR = system: SR
SW-620 = system: SW-620
T47D = system: T47D
TK-10 = system: TK-10
U-251 = system: U-251
UACC-257 = system: UACC-257
UACC-62 = system: UACC-62
UO-31 = system: UO-31
COLO 205 = system: COLO 205
NCI-H522 = system: NCI-H522
RXF 393 = system: RXF 393
SF-268 = system: SF-268
SF-539 = system: SF-539
SNB-75 = system: SNB-75

Measured: GI50

O=C(OCC1OC2OC(c3ccccc3)(n3ccc4c([N+](=O)[O-])ccnc43)OC2C1OC(=O)c1ccccc1)c1ccccc1 (configuration not stated)
inactive: 786-0 > 100 µM | A498 > 100 µM | A549 > 100 µM | ACHN > 100 µM | BT-549 > 100 µM | CAKI-1 > 100 µM | CCRF-CEM > 100 µM | DU-145 > 100 µM | EKVX > 100 µM | HCC 2998 > 100 µM | HCT-116 > 100 µM | HL-60 > 100 µM | HOP-62 > 100 µM | HOP-92 > 100 µM | HT-29 > 100 µM | Hs-578T 64.7 µM | IGROV-1 > 100 µM | K562 > 100 µM | KM12 > 100 µM | LOX IMVI > 100 µM | M14 > 100 µM | MCF7 > 100 µM | MDA-MB-231 > 100 µM | MDA-MB-435 > 100 µM | MDA-N > 100 µM | MOLT-4 > 100 µM | Malme-3M > 100 µM | NCI-H226 > 100 µM | NCI-H23 > 100 µM | NCI-H460 > 100 µM | NCI/ADR-RES > 100 µM | OVCAR-3 > 100 µM | OVCAR-4 > 100 µM | OVCAR-5 > 100 µM | OVCAR-8 > 100 µM | PC-3 > 100 µM | RPMI-8226 > 100 µM | SF-295 > 100 µM | SK-MEL-28 > 100 µM | SK-MEL-2 > 100 µM | SK-MEL-5 > 100 µM | SK-OV-3 > 100 µM | SN12C > 100 µM | SNB-19 > 100 µM | SR > 100 µM | SW-620 > 100 µM | T47D 35 µM | TK-10 > 100 µM | U-251 > 100 µM | UACC-257 > 100 µM | UACC-62 > 100 µM | UO-31 > 100 µM
> 100 µM: HCT-15

Nc1ccc(-c2nc3ccccc3s2)cc1Br
active: IGROV-1 < 0.01 µM | MCF7 < 0.01 µM | OVCAR-3 < 0.01 µM | OVCAR-5 0.134 µM | TK-10 0.0141 µM
inactive: 786-0 76.9 µM | A498 2.44 µM | A549 > 100 µM | ACHN > 80.9 µM | BT-549 > 56.8 µM | CAKI-1 > 100 µM | CCRF-CEM 32 µM | COLO 205 > 100 µM | DU-145 > 100 µM | EKVX 26.4 µM | HCC 2998 72.6 µM | HL-60 > 100 µM | HOP-62 29.9 µM | HOP-92 26.5 µM | HT-29 > 100 µM | Hs-578T 24 µM | K562 87.1 µM | KM12 > 92.9 µM | LOX IMVI > 80.9 µM | M14 97.9 µM | MDA-MB-231 52.6 µM | MDA-MB-435 > 100 µM | MDA-N > 100 µM | MOLT-4 31.4 µM | Malme-3M > 100 µM | NCI-H23 63.7 µM | NCI-H460 4.31 µM | NCI-H522 > 100 µM | NCI/ADR-RES > 100 µM | OVCAR-4 > 100 µM | OVCAR-8 > 75.2 µM | PC-3 69.7 µM | RPMI-8226 70.8 µM | RXF 393 > 38.9 µM | SF-268 61 µM | SF-295 66.7 µM | SF-539 > 51.3 µM | SK-MEL-28 > 100 µM | SK-MEL-2 > 100 µM | SK-MEL-5 > 100 µM | SK-OV-3 > 71.4 µM | SN12C > 100 µM | SNB-19 60.4 µM | SNB-75 31.3 µM | SR > 94.8 µM | SW-620 > 100 µM | T47D 58.1 µM | U-251 57.5 µM | UACC-257 > 100 µM | UACC-62 > 100 µM | UO-31 27.5 µM
62.8 µM: HCT-15

Cc1ccc(S(=O)(=O)CNC(=O)C(O)(O)C(F)(F)F)cc1
> 100 µM: HCT-15
inactive: 786-0 > 100 µM | A498 > 100 µM | A549 > 100 µM | BT-549 > 100 µM | CAKI-1 > 100 µM | CCRF-CEM > 100 µM | COLO 205 > 100 µM | DU-145 > 100 µM | EKVX > 100 µM | HCC 2998 > 100 µM | HCT-116 > 100 µM | HL-60 > 100 µM | HOP-62 > 100 µM | HOP-92 > 100 µM | HT-29 > 100 µM | Hs-578T > 100 µM | IGROV-1 > 100 µM | K562 > 100 µM | KM12 > 100 µM | LOX IMVI > 100 µM | M14 > 100 µM | MCF7 > 100 µM | MDA-MB-231 > 100 µM | MDA-MB-435 > 100 µM | MDA-N > 100 µM | MOLT-4 > 100 µM | Malme-3M > 100 µM | NCI-H23 > 100 µM | NCI-H460 > 100 µM | NCI-H522 > 100 µM | NCI/ADR-RES > 100 µM | OVCAR-3 > 100 µM | OVCAR-4 > 100 µM | OVCAR-5 > 100 µM | OVCAR-8 > 100 µM | PC-3 > 100 µM | RPMI-8226 > 100 µM | RXF 393 > 100 µM | SF-268 > 100 µM | SF-295 > 100 µM | SF-539 > 100 µM | SK-MEL-28 > 100 µM | SK-MEL-2 > 100 µM | SK-MEL-5 > 100 µM | SK-OV-3 > 100 µM | SN12C > 100 µM | SNB-19 > 100 µM | SR > 100 µM | SW-620 > 100 µM | T47D > 100 µM | TK-10 > 100 µM | U-251 > 100 µM | UACC-257 > 100 µM | UACC-62 > 100 µM | UO-31 > 100 µM

COc1cc(/C=C2\N=C(c3ccccc3)N(/N=C3\C(=O)Nc4ccccc43)C2=O)cc(OC)c1OC
inactive: 786-0 > 100 µM | A498 > 100 µM | A549 > 100 µM | ACHN > 100 µM | BT-549 > 100 µM | CAKI-1 > 100 µM | CCRF-CEM 37.1 µM | COLO 205 57.4 µM | DU-145 > 100 µM | EKVX 46.2 µM | HCC 2998 > 100 µM | HCT-116 > 100 µM | HL-60 94.4 µM | HOP-62 > 100 µM | HOP-92 40.3 µM | HT-29 > 100 µM | Hs-578T 54 µM | IGROV-1 > 100 µM | K562 > 100 µM | KM12 > 100 µM | LOX IMVI 90.8 µM | M14 > 100 µM | MCF7 > 100 µM | MDA-MB-231 > 100 µM | MDA-MB-435 39.1 µM | MDA-N 42.3 µM | MOLT-4 25.4 µM | Malme-3M 58.5 µM | NCI-H226 41.7 µM | NCI-H23 86.1 µM | NCI-H460 > 100 µM | NCI-H522 27.8 µM | NCI/ADR-RES > 100 µM | OVCAR-3 24.9 µM | OVCAR-4 61.9 µM | OVCAR-5 > 100 µM | OVCAR-8 94.2 µM | PC-3 > 100 µM | RXF 393 > 100 µM | SF-268 66.4 µM | SF-295 > 100 µM | SF-539 > 100 µM | SK-MEL-28 > 100 µM | SK-MEL-2 > 100 µM | SK-MEL-5 > 100 µM | SK-OV-3 > 100 µM | SN12C > 100 µM | SNB-19 > 100 µM | SNB-75 > 100 µM | SR 38.6 µM | SW-620 > 100 µM | T47D > 100 µM | TK-10 > 100 µM | U-251 > 100 µM | UACC-257 > 100 µM | UACC-62 > 100 µM | UO-31 > 100 µM
> 100 µM: HCT-15

O=c1nc(N2CCN(c3ccccc3)CC2)ccn1C1OC(CO)C(O)C1O (configuration not stated)
inactive: 786-0 86.3 µM | A498 > 100 µM | A549 > 100 µM | ACHN > 100 µM | BT-549 53.2 µM | CAKI-1 > 100 µM | CCRF-CEM 35.6 µM | COLO 205 97.3 µM | DU-145 > 100 µM | EKVX 61.2 µM | HCC 2998 35.9 µM | HCT-116 56 µM | HL-60 39.9 µM | HOP-62 > 100 µM | HOP-92 24.2 µM | HT-29 49.2 µM | Hs-578T > 100 µM | IGROV-1 60.5 µM | K562 29.4 µM | KM12 38.1 µM | LOX IMVI 94.2 µM | M14 37.5 µM | MCF7 54.6 µM | MDA-MB-231 > 100 µM | MDA-MB-435 32.2 µM | MDA-N 56.8 µM | MOLT-4 49.7 µM | Malme-3M > 100 µM | NCI-H226 > 100 µM | NCI-H23 55.3 µM | NCI-H460 > 100 µM | NCI-H522 52.8 µM | NCI/ADR-RES > 100 µM | OVCAR-3 56.4 µM | OVCAR-4 27.1 µM | OVCAR-5 > 100 µM | OVCAR-8 55.7 µM | PC-3 74.5 µM | RPMI-8226 36.9 µM | RXF 393 > 100 µM | SF-268 > 100 µM | SF-295 61.5 µM | SF-539 > 100 µM | SK-MEL-28 > 100 µM | SK-MEL-2 > 100 µM | SK-MEL-5 42.6 µM | SK-OV-3 > 100 µM | SN12C > 100 µM | SNB-19 > 100 µM | SR 28.4 µM | SW-620 82 µM | T47D 22.5 µM | TK-10 > 100 µM | U-251 52.2 µM | UACC-257 45.1 µM | UACC-62 59.7 µM | UO-31 > 100 µM
> 100 µM: HCT-15
